Results on two compounds are retold here after patent US9206215B2, “Hydrous crystalline 2-O-α-D-glucosyl-L-ascorbic acid, particulate composition comprising the same, their preparation and uses” (HAYASHIBARA CO., LTD., priority 2010, dated 2015).

Holding throughout (assay type): physicochemical
Data set [1] is described as follows: Tabletting property (cracking or chipping of pressed tablets). The following applies: powder with particle size 53 to 106 μm, 0.4 g, one ton load for 30 sec, 10 tablets observed for cracking or chipping. An excerpt: The tabletting property of a particulate composition containing hydrous crystalline ascorbic acid 2-glucoside of the present invention was investigated by the following method and compared with that of a conventional particulate composition containing anhydrous crystalline ascorbic acid 2-glucoside.
A hydrous crystalline ascorbic acid 2-glucoside powder with an ascorbic acid 2-glucoside purity of 99.2% by weight, obtained by the method in Experiment 3, was sieved to collect a powder with a particle size ranging from 53 to 106 μm. The powder thus obtained was placed in a metallic mold for tabletting (11 mm diameter and 30 mm thickness) in an amount of 0.4 g, and tabletted by loading on the powder one ton for 30 sec using “SSP-10A”, a portable press machine, commercialized by Shimadzu Corp., Kyoto, Japan, followed by taking out the resulting tablets by releasing the load. The procedure was repeated 10 times to prepare 10 tablets in total. As a control, “AA2G”, a trade mark of a commercialized particulate composition containing anhydrous crystalline ascorbic acid 2-glucoside with a purity of at least 98%, commercialized by Hayashibara Biochemical Laboratories, Inc., Okayama, Japan, was used to prepare a powder with a particle size ranging from 53 to 106 μm, which was then prepared into 10 tablets by the same method as above. […]

Data set [2] in a line: Tablet hardness measured on a rheometer. The following applies: tablet of Experiment 6, RHEOMETER CR-500DX. An excerpt:
During the preparation of tablets, the particulate composition was frequently observed, as a causative of cracking, to be adhered to a cylinder (punch) of the portable press machine at the stage of releasing the load and it induced cracking at the stage of taking out from the metallic mold of the press machine.

A short description of data set [3]: Oil-holding capacity with corn oil. The following applies: for Oil-holding capacity: five grams of corn oil, particle size 53 to 106 μm, powder added until end point. The protocol:
Using a particulate composition containing hydrous crystalline ascorbic acid 2-glucoside obtained by the method in Experiment 3-2, the oil-holding capacity of the particulate composition was determined. As a control, “AA2G”, a product name of a commercialized particulate composition containing anhydrous crystalline ascorbic acid 2-glucoside with a purity of at least 98% by weight, commercialized by Hayashibara Biochemical Laboratories, Inc., Okayama, Japan, was used.
The measurements for oil-holding capacity of the particulate compositions were conducted as follows in accordance with the method disclosed in Japanese Patent Kokai No. 31650/84. Five grams of a corn oil (a reagent grade specimen, Lot No.: WKL1215, commercialized by Wako Pure Chemical Industries, Osaka, Japan, was placed in a 50-ml plastic container, to which was gradually added while stirring the particulate composition containing hydrous crystalline ascorbic acid 2-glucoside or the particulate composition containing anhydrous crystalline ascorbic acid 2-glucoside, both of which had been adjusted to give a particle size of 53 to 106 μm similarly as in Experiment 6. Although the resulting mixture retains a free-flowing ability while the additive amount of any of the particulate compositions is relatively low, but it increases its viscosity as the increase of the additive amount and becomes a clump in due course. As the additive amount further increases, the clump increases its hardness and finally it could not keep together and begins to be unstiffen. The moment was regarded as the end point and the oil-holding capacity was determined by the following equation based on the amount of each crystalline particulate composition that had been added until the end point.

The mark [4] stands for this setting: listed as particulate composition containing hydrous crystalline ascorbic acid 2-glucoside.
Where [5] appears, read: listed as particulate composition containing anhydrous crystalline ascorbic acid 2-glucosi.

SMILES strings stand for the structures.

Turning to `O=C1O[C@H]([C@@H](O)CO)C(O)=C1O[C@H]1O[C@H](CO)[C@@H](O)[C@H](O)[C@H]1O` [Particulate composition containing hydrous crystalline ascor] [2-O-α-D-glucosyl-L-ascorbic acid], in data set [1] (setting [4]), the Tablet form result is listed as “neither cracking nor chipping was observed in all the 10 tablets”. Besides, the “degree of hardness of tablet” value in data set [2] is “about 90 N”. Further, the Oil-holding capacity in data set [3] and in data set [3] (setting [4]) was 38.3 each time. For the same compound, in data set [3] (hydrous versus anhydrous particulate composition), the “Oil-holding capacity relative to the anhydrous crystalline control” value is listed as “about 1.5 folds”.

As to `O=C1O[C@H]([C@@H](O)CO)C(O)=C1O[C@H]1O[C@H](CO)[C@@H](O)[C@H](O)[C@H]1O` [Particulate composition containing anhydrous crystalline asc] [2-O-α-D-glucosyl-L-ascorbic acid], in data set [1] (setting [5]), the Tablet form result is recorded as “cracking or chipping was observed in 9 out of 10 tablets”. Further, the Oil-holding capacity in data set [3] and in data set [3] (setting [5]) was 25.2 in each case.
